# Source: patent US9133204B2, “5-membered heterocyclic amides and related compounds” (H. Lundbeck A/S, priority 2007, dated 2015)
# Molecular target: T1, P2X7 receptor (Homo sapiens, UniProt Q99572)
# T1 construct: host or cells: SH-SY5Y
# T1 sequence (Q99572 1-595): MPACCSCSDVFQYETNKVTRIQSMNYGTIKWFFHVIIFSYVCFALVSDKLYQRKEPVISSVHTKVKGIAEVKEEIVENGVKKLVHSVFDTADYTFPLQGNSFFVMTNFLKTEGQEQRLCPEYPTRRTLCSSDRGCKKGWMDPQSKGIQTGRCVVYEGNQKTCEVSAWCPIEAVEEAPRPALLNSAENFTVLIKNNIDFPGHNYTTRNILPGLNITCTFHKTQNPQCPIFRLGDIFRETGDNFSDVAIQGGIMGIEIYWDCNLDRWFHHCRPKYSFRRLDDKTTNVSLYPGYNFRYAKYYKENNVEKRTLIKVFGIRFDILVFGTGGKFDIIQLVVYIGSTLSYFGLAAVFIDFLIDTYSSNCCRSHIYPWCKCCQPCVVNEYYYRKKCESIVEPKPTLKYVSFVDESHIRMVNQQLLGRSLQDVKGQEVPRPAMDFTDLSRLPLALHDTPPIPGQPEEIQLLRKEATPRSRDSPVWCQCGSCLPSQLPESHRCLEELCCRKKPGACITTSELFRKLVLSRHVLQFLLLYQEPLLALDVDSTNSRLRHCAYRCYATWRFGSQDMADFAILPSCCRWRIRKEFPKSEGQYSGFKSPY
# Assay: High throughput P2X7 calcium mobilization assay (Example 4A)
# Assay type: cell-based
# Conditions: SH-SY5Y cells; 50% decrease in fluorescence response of cells exposed to 80 μM BzATP; Table I
# How it was run: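 Calcium mobilization read by FLIPR as peak fluorescence over 2 min after adding BzATP to a final 80 μM (about EC50). Beforehand, Fluo-4 AM-loaded SH-SY5Y cells sat 1 h at room temperature with compound at 1–2500 nM in pH 7.4 sucrose/HEPES buffer; signal minus no-agonist wells.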
row,Structure (SMILES),IC50
1,"Cc1nn(-c2ncc(F)c(N)n2)cc1C(=O)NCC(CC(C)C)c1ccc(C(F)(F)F)cc1 (centres unmarked) [Compound 116, 1-(4-amino-5-fluoropyrimidin-2-yl)-3-methyl-N-{4-methyl-2-[4-(trifluoromethyl)phenyl]pentyl}-1H-pyrazole-4-carboxamide]",≤ 2000 nM
2,"Cc1nn(-c2ncc(F)cn2)cc1C(=O)NCC(CC(C)C)c1ccc(C(F)(F)F)cc1 (centres unmarked) [Compound 117, 1-(5-fluoropyrimidin-2-yl)-3-methyl-N-{4-methyl-2-[4-(trifluoromethyl)phenyl]pentyl}-1H-pyrazole-4-carboxamide]",≤ 2000 nM
3,"O=C(NCC12CC3CC(CC(C3)C1)C2)c1cn(-c2ncc(F)cn2)nc1C(F)(F)F [Compound 118, N-(adamantan-1-ylmethyl)-1-(5-fluoropyrimidin-2-yl)-3-(trifluoromethyl)-1H-pyrazole-4-carboxamide]",≤ 2000 nM
4,"Cc1cnc(-n2cc(C(=O)NCC34CC5CC(CC(C5)C3)C4)c(C)n2)nc1-c1ccncc1 [Compound 119, N-(adamantan-1-ylmethyl)-3-methyl-1-(5-methyl-4-pyridin-4-ylpyrimidin-2-yl)-1H-pyrazole-4-carboxamide]",≤ 2000 nM
5,"Cc1cnc(-n2cc(C(=O)NCC34CC5CC(CC(C5)C3)C4)c(C)n2)nc1-c1cncnc1 [Compound 120, N-(adamantan-1-ylmethyl)-3-methyl-1-(5-methyl-4,5′ bipyrimidin-2-yl)-1H-pyrazole-4-carboxamide]",≤ 2000 nM
6,"Cc1cnc(-n2cc(C(=O)NCC34CC5CC(CC(C5)C3)C4)c(C)n2)nc1-c1ccccn1 [Compound 121, N-(adamantan-1-ylmethyl)-3-methyl-1-(5-methyl-4-pyridin-2-ylpyrimidin-2-yl)-1H-pyrazole-4-carboxamide]",≤ 2000 nM
7,"Cc1cnc(-n2cc(C(=O)NCC34CC5CC(CC(C5)C3)C4)c(C)n2)nc1-c1ncccn1 [Compound 122, N-(adamantan-1-ylmethyl)-3-methyl-1-(5′-methyl-2,4′-bipyrimidin-2′-yl)-1H-pyrazole-4-carboxamide]",≤ 2000 nM
8,"Cc1cnc(-n2cc(C(=O)NCC34CC5CC(CC(C5)C3)C4)c(C(F)(F)F)n2)nc1N [Compound 123, N-(adamantan-1-ylmethyl)-1-(4-amino-5-methylpyrimidin-2-yl)-3-(trifluoromethyl)-1H-pyrazole-4-carboxamide]",≤ 2000 nM
9,"Cc1ccc(-n2cc(C(=O)NCC34CC5CC(CC(C5)C3)C4)c(C(F)(F)F)n2)nc1 [Compound 124, N-(adamantan-1-ylmethyl)-1-(5-methylpyridin-2-yl)-3-(trifluoromethyl)-1H-pyrazole-4-carboxamide]",≤ 2000 nM
10,"Cc1nn(-c2ncc(Br)cn2)cc1C(=O)NCC12CC3CC(CC(C3)C1)C2 [Compound 125, N-(adamantan-1-ylmethyl)-1-(5-bromopyrimidin-2-yl)-3-methyl-1H-pyrazole-4-carboxamide]",≤ 2000 nM
11,"CC(C)c1nn(-c2ncc(F)c(N)n2)cc1C(=O)NCC12CC3CC(CC(C3)C1)C2 [Compound 126, N-(adamantan-1-ylmethyl)-1-(4-amino-5-fluoropyrimidin-2-yl)-3-isopropyl-1H-pyrazole-4-carboxamide]",≤ 2000 nM
12,"CC(C)c1nn(-c2ncc(F)cn2)cc1C(=O)NCC12CC3CC(CC(C3)C1)C2 [Compound 127, N-(adamantan-1-ylmethyl)-1-(5-fluoropyrimidin-2-yl)-3-isopropyl-1H-pyrazole-4-carboxamide]",≤ 2000 nM
13,"Cc1c(N)ncnc1-n1cc(C(=O)NCC23CC4CC(CC(C4)C2)C3)c(C(F)(F)F)n1 [Compound 128, N-(adamantan-1-ylmethyl)-1-(6-amino-5-methylpyrimidin-4-yl)-3-(trifluoromethyl)-1H-pyrazole-4-carboxamide]",≤ 2000 nM
14,"O=C(NCC12CC3CC(CC(C3)C1)C2)c1cn(-c2ncccn2)nc1C(F)(F)F [Compound 129, N-(adamantan-1-ylmethyl)-1-pyrimidin-2-yl-3-(trifluoromethyl)-1H-pyrazole-4-carboxamide]",≤ 2000 nM
15,"Nc1ccnc(-n2cc(C(=O)NCC34CC5CC(CC(C5)C3)C4)c(C(F)(F)F)n2)n1 [Compound 130, N-(adamantan-1-ylmethyl)-1-(4-aminopyrimidin-2-yl)-3-(trifluoromethyl)-1H-pyrazole-4-carboxamide]",≤ 2000 nM
16,"Nc1cccnc1-n1cc(C(=O)NCC23CC4CC(CC(C4)C2)C3)c(C(F)(F)F)n1 [Compound 131, N-(adamantan-1-ylmethyl)-1-(3-aminopyridin-2-yl)-3-(trifluoromethyl)-1H-pyrazole-4-carboxamide]",≤ 2000 nM

row,Structure (SMILES),IC50
1,"Cc1cccnc1-n1cc(C(=O)NCC23CC4CC(CC(C4)C2)C3)c(C(F)(F)F)n1 [Compound 132, N-(adamantan-1-ylmethyl)-1-(3-methylpyridin-2-yl)-3-(trifluoromethyl)-1H-pyrazole-4-carboxamide]",≤ 2000 nM
2,"CC(C)c1nn(-c2nccs2)cc1C(=O)NCC12CC3CC(CC(C3)C1)C2 [Compound 133, N-(adamantan-1-ylmethyl)-3-isopropyl-1-(1,3-thiazol-2-yl)-1H-pyrazole-4-carboxamide]",≤ 2000 nM
3,"O=C(NCC12CC3CC(CC(C3)C1)C2)c1c[nH]nc1C(F)(F)F [Compound 134, N-(adamantan-1-ylmethyl)-3-(trifluoromethyl)-1H-pyrazole-4-carboxamide]",≤ 2000 nM
4,"O=C(NCC12CC3CC(CC(C3)C1)C2)c1cn(-c2nccs2)nc1C(F)(F)F [Compound 135, N-(adamantan-1-ylmethyl)-1-(1,3-thiazol-2-yl)-3-(trifluoromethyl)-1H-pyrazole-4-carboxamide]",≤ 2000 nM
5,"O=C(NCC12CC3CC(CC(C3)C1)C2)c1cn(-c2cnccn2)nc1C(F)(F)F [Compound 136, N-(adamantan-1-ylmethyl)-1-pyrazin-2-yl-3-(trifluoromethyl)-1H-pyrazole-4-carboxamide]",≤ 2000 nM
6,"Nc1cncc(-n2cc(C(=O)NCC34CC5CC(CC(C5)C3)C4)c(C(F)(F)F)n2)n1 [Compound 137, N-(adamantan-1-ylmethyl)-1-(6-aminopyrazin-2-yl)-3-(trifluoromethyl)-1H-pyrazole-4-carboxamide]",≤ 2000 nM
7,"Cc1ccc(C2(CNC(=O)c3cn(-c4ncc(F)c(N)n4)nc3C(F)(F)F)CCCCC2)cn1 [Compound 138, 1-(4-amino-5-fluoropyrimidin-2-yl)-N-{[1-(6-methylpyridin-3-yl)cyclohexyl]methyl}-3-(trifluoromethyl)-1H-pyrazole-4-carboxamide]",≤ 2000 nM
8,"CC(C)CC(CNC(=O)c1cn(-c2ncc(F)c(N)n2)nc1C(F)(F)F)c1cccnc1 (centres unmarked) [Compound 139, 1-(4-amino-5-fluoropyrimidin-2-yl)-N-(4-methyl-2-pyridin-3-ylpentyl)-3-(trifluoromethyl)-1H-pyrazole-4-carboxamide]",≤ 2000 nM
9,"CC(C)CC(CNC(=O)c1cn(-c2ncc(F)c(N)n2)nc1C(F)(F)F)c1ccc(Cl)cc1 (centres unmarked) [Compound 140, 1-(4-amino-5-fluoropyrimidin-2-yl)-N-[2-(4-chlorophenyl)-4-methylpentyl]-3-(trifluoromethyl)-1H-pyrazole-4-carboxamide]",≤ 2000 nM
10,"Nc1nc(-n2cc(C(=O)NCC3(c4ccc(Cl)cc4)CCCCC3)c(C(F)(F)F)n2)ncc1F [Compound 141, 1-(4-amino-5-fluoropyrimidin-2-yl)-N-{[1-(4-chlorophenyl)cyclohexyl]methyl}-3-(trifluoromethyl)-1H-pyrazole-4-carboxamide]",≤ 2000 nM
11,"Cn1ccnc1-n1cc(C(=O)NCC23CC4CC(CC(C4)C2)C3)c(C(F)(F)F)n1 [Compound 142, N-(adamantan-1-ylmethyl)-1-(1-methyl-1H-imidazol-2-yl)-3-(trifluoromethyl)-1H-pyrazole-4-carboxamide]",≤ 2000 nM
12,"COc1ccc(-n2cc(C(=O)NCC34CC5CC(CC(C5)C3)C4)c(C(C)C)n2)nn1 [Compound 143, N-(adamantan-1-ylmethyl)-3-isopropyl-1-(6-methoxypyridazin-3-yl)-1H-pyrazole-4-carboxamide]",≤ 2000 nM
13,"Nc1nc(-n2cc(C(=O)NCC3(N4CCOCC4)CCCCC3)c(C(F)(F)F)n2)ncc1F [Compound 144, 1-(4-amino-5-fluoropyrimidin-2-yl)-N-[(1-morpholin-4-ylcyclohexyl)methyl]-3-(trifluoromethyl)-1H-pyrazole-4-carboxamide]",≤ 2000 nM
14,"O=C(NCC12CC3CC(CC(C3)C1)C2)c1cn(-c2ncccn2)nc1C1CC1 [Compound 145, N-(adamantan-1-ylmethyl)-3-cyclopropyl-1-pyrimidin-2-yl-1H-pyrazole-4-carboxamide]",≤ 2000 nM
15,"Nc1ccnc(-n2cc(C(=O)NCC34CC5CC(CC(C5)C3)C4)c(C3CC3)n2)n1 [Compound 146, N-(adamantan-1-ylmethyl)-1-(4-aminopyrimidin-2-yl)-3-cyclopropyl-1H-pyrazole-4-carboxamide]",≤ 2000 nM
16,"Nc1nccnc1-n1cc(C(=O)NCC23CC4CC(CC(C4)C2)C3)c(C(F)(F)F)n1 [Compound 147, N-(adamantan-1-ylmethyl)-1-(3-aminopyrazin-2-yl)-3-(trifluoromethyl)-1H-pyrazole-4-carboxamide]",≤ 2000 nM
